Drawing on patent US20170291905A1, “ARGININE […] INHIBITORS AND USES THEREOF” (Epizyme, Inc., priority 2014, published 2017), this text covers IC50 for eight compounds.

SMILES strings stand for the structures.

A word on the IC50: it is the midpoint of a concentration-inhibition curve.

The target in the experiment is T1, full-length human PRMT1 isoform 1 (GST-tagged) (Homo sapiens, UniProt Q99873).
T1 construct: GST-tagged PRMT1 was eluted with 50 mM Tris, 2 mM glutathione, pH 7.8, dialysed in buffer A and concentrated; made in house; host or cells: High Five insect cells (baculovirus)
T1 sequence (Q99873 with tags, fused parts or gaps): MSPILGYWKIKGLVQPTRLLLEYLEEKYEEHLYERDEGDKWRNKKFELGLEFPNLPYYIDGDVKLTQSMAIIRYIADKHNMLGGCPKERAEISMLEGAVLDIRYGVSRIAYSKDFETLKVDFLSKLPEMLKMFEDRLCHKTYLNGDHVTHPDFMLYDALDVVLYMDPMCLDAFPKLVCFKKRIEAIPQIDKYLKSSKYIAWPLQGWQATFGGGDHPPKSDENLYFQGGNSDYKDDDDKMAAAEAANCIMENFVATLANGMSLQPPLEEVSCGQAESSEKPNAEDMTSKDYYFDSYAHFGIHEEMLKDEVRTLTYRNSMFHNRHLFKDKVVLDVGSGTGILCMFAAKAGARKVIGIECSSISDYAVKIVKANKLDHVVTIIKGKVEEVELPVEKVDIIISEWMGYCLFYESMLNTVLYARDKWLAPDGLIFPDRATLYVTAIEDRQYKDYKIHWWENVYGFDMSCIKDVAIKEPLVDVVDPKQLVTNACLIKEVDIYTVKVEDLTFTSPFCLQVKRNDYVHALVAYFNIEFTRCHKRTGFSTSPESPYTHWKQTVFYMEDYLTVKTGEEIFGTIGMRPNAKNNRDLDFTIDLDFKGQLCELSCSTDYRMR
The experiment in a line: PRMT1 biochemical assay (3H-SAM Flashplate, histone H4 36-50 peptide). The following applies: 0.5 nM PRMT1, 30 min preincubation, 20 nM peptide. The method in brief:
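GST-PRMT1 (0.5 nM) preincubated 30 min at room temperature with compound in bicine buffer pH 7.6. Reaction then run with 200 nM 3H-SAM plus 1.5 uM SAM and 20 nM biotinylated H4 36-50 peptide, 2% DMSO. Stopped with excess cold SAM, and methylated peptide captured on streptavidin Flashplates for counting; % inhibition versus DMSO and 1 mM SAH controls, 3- or 4-parameter fit.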
`Cc1[nH]nc([C@H]2CC[C@]3(CC2)CC(C)(C)CO3)c1CN(C)CCN` [compound 52, N1-((3-((5r,8r)-3,3-dimethyl-1-oxaspiro[4.5]decan-8-yl)-5-methyl-1H-pyrazol-4-yl)methyl)-N1-methylethane-1,2-diamine] displayed a half-maximal inhibitory concentration (IC50) of 16 nM. As for `CCOC[C@@H]1CC(c2n[nH]cc2CN(C)CCNC)CCC1(C)C` (stereo partly drawn) [compound 31, {2-[({3-[(3R)-3-(ethoxymethyl)-4,4-dimethylcyclohexyl]-1H-pyrazol-4-yl}methyl)(methyl)amino]ethyl}(methyl)amine], the figure is 25 nM; as for `CCOCC1(COCC)CCC(c2nn(C)cc2CN(C)CCNC)CC1` [compound 122], 21.1 nM.

For the compound `CNCCN(C)Cc1cncn1[C@H]1CC[C@]2(CC1)CC(C)(C)CO2` [compound 98], the IC50 worked out at 4360 nM. Turning to `CNCCN(C)Cc1cnnn1[C@H]1CC[C@@]2(CC1)CC(C)(C)CO2` [compound 65], the IC50 was above 10000 nM.

Take `CNCCN(C)Cc1c[nH]nc1C1CCC(COCC(C)C)(COCC(C)C)CC1` [compound 6]: the midpoint of inhibition, the IC50, lay at 16.7 nM. As for `CNCCN(C)Cc1c[nH]nc1C1CCC2(CC1)CC(C)(C)OC2=O` (centres unmarked) [compound 125], the figure is 10.7 nM; as for `Cc1[nH]nc(C2CCC3(CC2)CC(C)(C)CO3)c1CN(C)CCN` (centres unmarked) [compound 59], 11.4 nM.
